# According to patent US20230250108A1, “TETRAHYDROISOQUINOLINE COMPOUNDS AND USE THEREOF” (JIANGSU SIMCERE PHARMACEUTICAL CO., LTD., priority 2020, published 2023):
# Structures can show the parent of a compound that is named as a salt.
# How the values were obtained:
# PRMT5/MEP50 = target: T1, PRMT5/MEP50 (Homo sapiens, UniProt O14744); assay: PRMT5 enzymatic activity inhibition experiment (AlphaScreen); type: biochemical; conditions: PRMT5/MEP50, Histone H4 peptide substrate; read-out: Inhibition of enzymatic activity IC50
# T1 construct: purchased BPS Bioscience Inc. (USA)
# T1 sequence (O14744 2-637 limits assumed): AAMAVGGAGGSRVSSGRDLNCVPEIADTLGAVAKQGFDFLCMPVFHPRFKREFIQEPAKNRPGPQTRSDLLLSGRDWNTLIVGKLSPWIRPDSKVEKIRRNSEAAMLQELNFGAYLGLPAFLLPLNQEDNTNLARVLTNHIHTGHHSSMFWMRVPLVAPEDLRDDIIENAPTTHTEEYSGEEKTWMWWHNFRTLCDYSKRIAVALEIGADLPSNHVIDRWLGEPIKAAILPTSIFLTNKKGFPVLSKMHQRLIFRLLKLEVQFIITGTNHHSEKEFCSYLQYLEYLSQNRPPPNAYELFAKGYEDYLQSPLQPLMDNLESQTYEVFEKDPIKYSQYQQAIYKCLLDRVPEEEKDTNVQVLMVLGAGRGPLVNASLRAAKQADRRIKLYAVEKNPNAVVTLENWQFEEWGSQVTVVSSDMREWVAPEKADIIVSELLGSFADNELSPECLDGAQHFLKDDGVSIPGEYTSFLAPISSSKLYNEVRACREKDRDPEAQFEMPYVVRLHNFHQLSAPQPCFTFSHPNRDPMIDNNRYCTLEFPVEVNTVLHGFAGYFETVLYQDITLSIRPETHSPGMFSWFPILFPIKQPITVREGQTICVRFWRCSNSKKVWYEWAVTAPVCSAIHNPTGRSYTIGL
# T1 sequence (Q9BQA1 2-342 partner limits assumed): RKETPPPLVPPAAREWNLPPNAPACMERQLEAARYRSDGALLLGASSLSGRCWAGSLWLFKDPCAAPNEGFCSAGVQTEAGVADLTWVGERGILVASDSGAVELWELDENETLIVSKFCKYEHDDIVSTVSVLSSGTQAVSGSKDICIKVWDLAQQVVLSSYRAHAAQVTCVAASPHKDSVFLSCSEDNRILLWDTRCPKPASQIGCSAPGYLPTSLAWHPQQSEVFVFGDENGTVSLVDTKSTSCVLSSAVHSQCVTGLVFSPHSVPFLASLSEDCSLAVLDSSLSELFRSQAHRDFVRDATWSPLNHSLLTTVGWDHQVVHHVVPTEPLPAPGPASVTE
# Source text: Materials: PRMT5/MEP50 proteins were purchased from BPS Bioscience Inc. (USA); Histone H4 Peptide substrate was purchased from Sangon Biotech (Shanghai) Co., Ltd.; Anti-Histone H4 (symmetric dimethyl R3) antibody—ChIP Grade was purchased from Abcam PLC. (USA); S-(5′-Adenosyl)-L-methionine chloride dihydrochloride was purchased from Sigma PLC. (USA); 384-well plate, AlphaScreen Streptavidin Donor beads, AlphaScreen Protein A Acceptor beads, and Envision 2104 multi-label Reader were purchased from Perkin-Elmer Instruments (USA) Corporation; and Echo 550 Liquid Handler was purchased from Labcyte Inc. (USA).
# Enzymatic activity assay: The compounds were added into a 384-well plate by using the Echo 550 Liquid Handler with the final concentration of 0-1000 nM (initial concentration: 1000 nM, 3-fold dilution, for 10 points), and the DMSO content was 0.5%. 10 μL of a 2× PRMT5/MEP50 solution was added into each well and incubated at room temperature for 30 minutes. 10 μL of 2× PRMT5/MEP50 substrate solution was added to each well to start the reaction and incubated at room temperature for 60 minutes. A 6× detection reagent containing AlphaScreen Protein A Acceptor beads and Anti-Histone H4 (symmetric dimethyl R3) antibodies was prepared and 5 μL was added to each well. The plate was incubated at room temperature for 60 minutes. A 6× detection reagent containing AlphaScreen Streptavidin Donor beads was prepared and 5 μL was added to each well. The plate was incubated at room temperature for 60 minutes. The signal values were detected by using the Envision.
# Z-138 cells = assay: Inhibitory activity on tumor cell proliferation (Cell-Titer Glo, 8 days); type: cell-based; conditions: Homo sapiens, 192 h, read-out: Inhibition of cell proliferation Z-138 IC50
# Method: Materials and cells: Z-138 cells were purchased from ATCC (USA); IMDM medium and penicillin-streptomycin were purchased from Sigma PLC. (USA); horse serum was purchased from Hyclone (USA); 96-well plate was purchased from Corning (USA); and Cell-Titer Glo reagent was purchased from Promega (USA).
# Cell culture: Z-138 cells were cultured in an IMDM culture solution containing 10% Horse serum+1% penicillin−streptomycin at 37° C., 5% CO2. Cells in logarithmic growth phase were suitable for the experiment.
# Detection of cell proliferation activity: The inhibitory activities of the compounds on the proliferation of Z-138 cells were detected by using the Cell-Titer Glo reagent. The concentrations of the cells were adjusted, and 180 μL was inoculated in each well of the 96-well plate (500/well) and equilibrated for 10-15 minutes at 37° C., 5% CO2. 20 μL of a culture solution containing the compounds was added into each well with the final concentration reaching 0-300 nM (initial concentration: 300 nM, 3-fold dilution, for 10 points), and the DMSO content was 0.1%. The cell plate was placed at 37° C., 5% CO2 and incubated for 8 days. Culture solution was replaced at day 4: 100 μL of the supernatant was slowly aspirated and 100 μL of a fresh culture solution containing the compounds was provided as a supplement while the concentrations of the compounds were held constant. The cell viability was detected by using the Cell-Titer Glo reagent.
IC50 (Z-138 cells) [nM],Structure (SMILES),IC50 (PRMT5/MEP50) [nM]
1.93,"CCN1CCN(C[C@@H](O)[C@@H]2Cc3ccccc3CN2)C(=O)c2ccc(C(=O)N3CCC4(CCOCC4)C3)cc21 [Compound 010, 1-ethyl-4-((R)-2-hydroxy-2-((S)-1,2,3,4-tetrahydroisoquinolin-3-yl)ethyl)-8-(8-oxa-2-azaspiro[4.5]decane-2-carbonyl)-1,2,3,4-tetrahydro-5H-benzo[e][1,4]diazepin-5-one hydrochloride]",
2.2,"CCN1CCN(C[C@@H](O)[C@@H]2Cc3ccccc3CN2)C(=O)c2ccc(C(=O)N3CC4(CCC(OC)CC4)C3)cc21 [Compound 011, 1-ethyl-4-((R)-2-hydroxy-2-((S)-1,2,3,4-tetrahydroisoquinolin-3-yl)ethyl)-8-(7-methoxy-2-azaspiro[3.5]nonane-2-carbonyl)-1,2,3,4-tetrahydro-5H-benzo[e][1,4]diazepin-5-one hydrochloride]",
4.09,"CCN1CCN(C[C@@H](O)[C@@H]2Cc3ccccc3CN2)C(=O)c2ccc(C(=O)N3CCC4(CC4)C(F)(F)C3)cc21 [Compound 012, 8-(4,4-difluoro-6-azaspiro[2.5]octane-6-carbonyl)-1-ethyl-4-((R)-2-hydroxy-2-((S)-1,2,3,4-tetrahydroisoquinolin-3-yl)ethyl)-1,2,3,4-tetrahydro-5H-benzo[e][1,4]diazepin-5-one hydrochloride]",
2.37,"CCN1CCN(C[C@@H](O)[C@@H]2Cc3ccccc3CN2)C(=O)c2ccc(C(=O)N3CCC4(CC3)CC4(F)F)cc21 [Compound 013, 8-(1,1-difluoro-6-azaspiro[2.5]octane-6-carbonyl)-1-ethyl-4-((R)-2-hydroxy-2-((S)-1,2,3,4-tetrahydroisoquinolin-3-yl)ethyl)-1,2,3,4-tetrahydro-5H-benzo[e][1,4]diazepin-5-one hydrochloride]",
11.7,"CCN1CCN(C[C@@H](O)[C@@H]2Cc3ccccc3CN2)C(=O)c2ccc(C(=O)N3CCOCC3)cc21 [Compound 014, 1-ethyl-4-((R)-2-hydroxy-2-((S)-1,2,3,4-tetrahydroisoquinolin-3-yl)ethyl)-8-(morpholine-4-carbonyl)-1,2,3,4-tetrahydro-5H-benzo[e][1,4]diazepin-5-one hydrochloride]",
11.1,"CCN1CCN(C[C@@H](O)[C@@H]2Cc3ccccc3CN2)C(=O)c2ccc(C(=O)N3CCN(C(C)=O)CC3)cc21 [Compound 015, 8-(4-acetylpiperazine-1-carbonyl)-1-ethyl-4-((R)-2-hydroxy-2-((S)-1,2,3,4-tetrahydroisoquinolin-3-yl)ethyl)-1,2,3,4-tetrahydro-5H-benzo[e][1,4]diazepin-5-one hydrochloride]",
45.1,"CCN1CCN(C[C@@H](O)[C@@H]2Cc3ccccc3CN2)C(=O)c2ccc(C(=O)N(C)Cc3ccccc3)cc21 [Compound 016, N-benzyl-1-ethyl-4-((R)-2-hydroxy-2-((S)-1,2,3,4-tetrahydroisoquinolin-3-yl)ethyl)-N-methyl-5-oxo-2,3,4,5-tetrahydro-1H-benzo[e][1,4]diaza-8-carboxamide hydrochloride]",
27.6,"CCN1CCN(C[C@@H](O)[C@@H]2Cc3ccccc3CN2)C(=O)c2ccc(C(=O)N(C)CCc3ccc(F)cc3)cc21 [Compound 017, 1-ethyl-N-(4-fluorophenethyl)-4-((R)-2-hydroxy-2-((S)-1,2,3,4-tetrahydroisoquinolin-3-yl)ethyl)-N-methyl-5-oxo-2,3,4,5-tetrahydro-1H-benzo[e][1,4]diazepine-8-carboxamide hydrochloride]",
26,"CCN1CCN(C[C@@H](O)[C@@H]2Cc3ccccc3CN2)C(=O)c2ccc(C(=O)N(C)CCc3cccnc3)cc21 [Compound 018, 1-ethyl-4-((R)-2-hydroxy-2-((S)-1,2,3,4-tetrahydroisoquinolin-3-yl)ethyl)-N-methyl-5-oxo-N-(2-(pyridin-3-yl)ethyl)-2,3,4,5-tetrahydro-1H-benzo[e][1,4]diazepine-8-carboxamide hydrochloride]",
20.4,"CCN(CC)C(=O)c1ccc2c(c1)N(CC)CCN(C[C@@H](O)[C@@H]1Cc3ccccc3CN1)C2=O [Compound 019, N,N,1-triethyl-4-((R)-2-hydroxy-2-((S)-1,2,3,4-tetrahydroisoquinolin-3-yl)ethyl)-5-oxo-2,3,4,5-tetrahydro-1H-benzo[e][1,4]diazepine-8-carboxamide hydrochloride]",
8.35,"CCN1CCN(C[C@@H](O)[C@@H]2Cc3ccccc3CN2)C(=O)c2ccc(C(=O)N3CCC4(CC3)CC(N(C)C)C4)cc21 [Compound 021, 8-(2-(dimethylamino)-7-azaspiro[3.5]nonane-7-carbonyl)-1-ethyl-4-((R)-2-hydroxy-2-((S)-1,2,3,4-tetrahydroisoquinolin-3-yl)ethyl)-1,2,3,4-tetrahydro-5H-benzo[e][1,4]diazepin-5-one hydrochloride]",
16.8,"CCN1CCN(C[C@@H](O)[C@@H]2Cc3ccccc3CN2)C(=O)c2ccc(C(=O)N3CC4COCC4C3)cc21 (stereo partly drawn) [Compound 023, 1-ethyl-8-(hexahydro-1H-furo[3,4-c]pyrrole-5-carbonyl)-4-((R)-2-hydroxy-2-((S)-1,2,3,4-tetrahydroisoquinolin-3-yl)ethyl)-1,2,3,4-tetrahydro-5H-benzo[e][1,4]diazepin-5-one hydrochloride]",
138,"CCN1CCN(C[C@@H](O)[C@@H]2Cc3ccccc3CN2)C(=O)c2ccc(C(=O)N3CC4(COC4)C3)cc21 [Compound 025, 1-ethyl-4-((R)-2-hydroxy-2-((S)-1,2,3,4-tetrahydroisoquinolin-3-yl)ethyl)-8-(2-oxa-6-azaspiro[3.3]heptane-6-carbonyl)-1,2,3,4-tetrahydro-5H-benzo[e][1,4]diazepin-5-one]",
5.62,"CCN1CCN(C[C@@H](O)[C@@H]2Cc3ccccc3CN2)C(=O)c2ccc(C(=O)N3CCC4(CC3)CC(=O)C4)cc21 [Compound 026, 1-ethyl-4-((R)-2-hydroxy-2-((S)-1,2,3,4-tetrahydroisoquinolin-3-yl)ethyl)-8-(2-oxo-7-azaspiro[3.5]nonane-7-carbonyl)-1,2,3,4-tetrahydro-5H-benzo[e][1,4]diazepin-5-one]",
2.36,"Cl.[2H]C([2H])([2H])OC1CC2(CCN(C(=O)c3ccc4c(c3)N(CC)CCN(C[C@@H](O)[C@@H]3Cc5ccccc5CN3)C4=O)CC2)C1 [Compound 027, 1-ethyl-4-((R)-2-hydroxy-2-((S)-1,2,3,4-tetrahydroisoquinolin-3-yl)ethyl)-8-(2-(methoxy-d3)-7-azaspiro[3.5]nonane-7-carbonyl)-1,2,3,4-tetrahydro-5H-benzo[e][1,4]diazepin-5-one hydrochloride]",

Structure (SMILES),IC50 (Z-138 cells) [nM],IC50 (PRMT5/MEP50) [nM]
"O=C1c2ccc(C(=O)N3C4CCC3COC4)cc2OCCN1C[C@@H](O)[C@@H]1Cc2ccccc2CN1 [Compound 007, 8-(3-oxa-8-azabicyclo[3.2.1]octane-8-carbonyl)-4-((R)-2-hydroxy-2-((S)-1,2,3,4-tetrahydroisoquinolin-3-yl)ethyl)-3,4-dihydrobenzo[f][1,4]oxazepin-5(2H)-one]",7.55,7.66
"CCN1CCN(C[C@@H](O)[C@@H]2Cc3ccccc3CN2)C(=O)c2ccc(C(=O)N3C4CCCC3COC4)cc21 [Compound 020, 8-(3-oxa-9-azabicyclo[3,3,1]nonane-9-carbonyl)-1-ethyl-4-((R)-2-hydroxy-2-((S)-1,2,3,4-tetrahydroisoquinolin-3-yl)ethyl)-1,2,3,4-tetrahydro-5H-benzo[e][1,4]diazepin-5-one hydrochloride]",3.71,
"CCN1CCN(C[C@@H](O)[C@@H]2Cc3ccccc3CN2)C(=O)c2ccc(C(=O)N3C4CCC3CC(O)C4)cc21 (stereo partly drawn) [Compound 022, 1-ethyl-4-((R)-2-hydroxy-2-((S)-1,2,3,4-tetrahydroisoquinolin-3-yl)ethyl)-8-(3-hydroxy-8-azabicyclo[3.2.1]octane-8-carbonyl)-1,2,3,4-tetrahydro-5H-benzo[e][1,4]diazepin-5-one hydrochloride]",14.7,
